Key:
[1] = biological target: T1, aggregated recombinant human-microtubule associated protein Tau (Homo sapiens, UniProt P10636); assay: Thiazin-red R displacement fluorescence assay on aggregated Tau; assay type: binding; details: displacement of Thiazin-red R from aggregated Tau; compound 0.3 nM to 10000 nM; 30 min room temperature; Ex 531 nm/Em 595 nm
T1 construct: Recombinant human-microtubule associated protein Tau purified from E. coli is aggregated at a concentration of 5 μM with Arachidonic Acid (100 μM) in Tris 10 mM pH8, 24 h at 37° C
Method: (§1) Assay for Determination of […] for Tau and A-Beta
(§2) Recombinant human-microtubule associated protein Tau purified from E. coli is aggregated at a concentration of 5 μM with Arachidonic Acid (100 μM) in Tris 10 mM pH8, 24 h at 37° C. Synthetic Aβ40 is aggregated at a concentration of 50 μM with Arachidonic Acid (100 μM) in Tris 10 mM pH8, for three days at 37° C., under shaking at 150 rpm.
(§3) A saturation analysis of Thiazin-red R to the aggregated proteins is done to determine the affinity (Kd) of the Thiazin-red R to the aggregated protein.
(§4) Thiazin-red R will be added at the concentration corresponding to the Kd to the respective aggregated protein binding site, to induce a fluorescent signal that can be inhibited by the addition of a displacer compound.
(§5) In parallel, auto fluorescence of the compound is measured together with the aggregated proteins, but without Thiazin-red R. As negative control, ligand and aggregated protein is used and as positive control, Thiazin-red R, reference compound with known activity and aggregated protein is used.
(§6) Assay is performed in Perkin Elmer OptiPlate 384, black, 45 ul assay volume, assay buffer is DPBS no CaCl2 no MgCl2 (GIBCO N. 14020). Tested compounds are diluted in DMSO and 2 μl is added to the assay ([…]). Assay is started by the addition of the aggregated protein (competitive condition). Plates are shortly shacked (1 min with Sterico variomag teleshake) and incubated for 30 min at room temperature. Measurement are done with En:Vision (Perkin Elmer), at Excitation 531 nm/Emission 595 nm.

[2] = biological target: T2, aggregated synthetic Aβ40 (Homo sapiens, UniProt P05067); assay: Thiazin-red R displacement fluorescence assay on aggregated A-beta; assay type: binding; details: displacement of Thiazin-red R from aggregated Aβ40; compound 0.3 nM to 10000 nM; 30 min room temperature; Ex 531 nm/Em 595 nm
T2 construct: Synthetic Aβ40 is aggregated at a concentration of 50 μM
Method: as §1, §2, §3, §4, §5, §6

T1 sequence (P10636 whole entry): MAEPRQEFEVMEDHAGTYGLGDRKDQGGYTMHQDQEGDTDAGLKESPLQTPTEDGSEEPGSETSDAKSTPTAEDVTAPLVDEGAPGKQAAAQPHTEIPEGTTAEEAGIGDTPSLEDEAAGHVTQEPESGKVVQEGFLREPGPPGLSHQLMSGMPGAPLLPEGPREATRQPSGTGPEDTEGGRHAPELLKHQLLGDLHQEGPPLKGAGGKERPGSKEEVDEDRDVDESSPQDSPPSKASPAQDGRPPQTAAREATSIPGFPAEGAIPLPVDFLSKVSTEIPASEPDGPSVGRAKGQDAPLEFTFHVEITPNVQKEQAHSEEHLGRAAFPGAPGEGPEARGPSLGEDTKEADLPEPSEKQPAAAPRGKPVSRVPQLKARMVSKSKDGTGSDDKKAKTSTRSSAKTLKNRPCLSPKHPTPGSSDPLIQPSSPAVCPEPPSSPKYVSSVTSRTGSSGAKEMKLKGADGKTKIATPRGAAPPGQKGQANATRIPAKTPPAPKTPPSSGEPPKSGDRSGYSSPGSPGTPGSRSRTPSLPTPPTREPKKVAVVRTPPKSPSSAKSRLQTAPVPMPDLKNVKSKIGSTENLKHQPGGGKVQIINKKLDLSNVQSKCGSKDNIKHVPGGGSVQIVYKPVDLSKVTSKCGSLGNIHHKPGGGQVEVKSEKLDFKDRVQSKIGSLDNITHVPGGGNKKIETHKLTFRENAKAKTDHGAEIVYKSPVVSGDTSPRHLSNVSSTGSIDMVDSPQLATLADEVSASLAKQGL
T2 sequence (P05067 672-711 limits assumed): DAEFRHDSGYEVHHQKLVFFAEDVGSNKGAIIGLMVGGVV

| SMILES | IC50 [1] | IC50 [2] |
| --- | --- | --- |
| C=CCNC(=O)c1cccc(-c2cn3c(=O)/c(=C/c4cc(Cl)c(O)c(OC)c4)sc3n2)c1 [Example 113, N-Allyl-3-{2-[1-(3-chloro-4-hydroxy-5-methoxy-phenyl)-meth-(Z)-ylidene]-3-oxo-2,3-dihydro-imidazo[2,1-b]thiazol-6-yl}-benzamide] | 16 nM | 1160 nM |
| COc1cc(/C=c2\sc3nc(-c4cccc(S(=O)(=O)F)c4)cn3c2=O)cc(Cl)c1O [Example 152, 3-{2-[1-(3-Chloro-4-hydroxy-5-methoxy-phenyl)-meth-(Z)-ylidene]-3-oxo-2,3-dihydro-imidazo[2,1-b]thiazol-6-yl}-benzenesulfonyl fluoride] | 7 nM | 19 nM |
| COc1cc(/C=c2\sc3nc(-c4ccccc4C)cn3c2=O)cc(Cl)c1O [Example 10, 2-[1-(3-Chloro-4-hydroxy-5-methoxy-phenyl)-meth-(Z)-ylidene]-6-o-tolyl-imidazo[2,1-b]thiazol-3-one] | 28 nM | 1220 nM |
| CCCNC(=O)c1cccc(-c2cn3c(=O)/c(=C/c4cc(Cl)c(O)c(OC)c4)sc3n2)c1 [Example 107, 3-{2-[1-(3-Chloro-4-hydroxy-5-methoxy-phenyl)-meth-(Z)-ylidene]-3-oxo-2,3-dihydro-imidazo[2,1-b]thiazol-6-yl}-N-propyl-benzamide] | 3 nM | 2630 nM |
| COc1cc(/C=c2\sc3nc(-c4cc(C)nc(C)c4)cn3c2=O)cc(OC)c1O [Example 17, 2-[1-(4-Hydroxy-3,5-dimethoxy-phenyl)-meth-(Z)-ylidene]-6-(2,6-dimethyl-pyridin-4-yl)-imidazo[2,1-b]thiazol-3-one] | 5 nM | 68 nM |
| COc1cc(/C=c2\sc3nc(-c4ccc(C(=O)O)cc4)cn3c2=O)cc(Cl)c1O [Example 98, 4-{2-[1-(3-Chloro-4-hydroxy-5-methoxy-phenyl)-meth-(Z)-ylidene]-3-oxo-2,3-dihydro-imidazo[2,1-b]thiazol-6-yl}-benzoic acid] | 21 nM | 1850 nM |
| COc1cc(/C=c2\sc3nc(-c4cc(Br)cc(C#N)c4)cn3c2=O)cc(Cl)c1O [Example 85, 3-Bromo-5-{2-[1-(3-chloro-4-hydroxy-5-methoxy-phenyl)-meth-(Z)-ylidene]-3-oxo-2,3-dihydro-imidazo[2,1-b]thiazol-6-yl}-benzonitrile] | 0.8 nM | 1730 nM |
| O=c1/c(=C/c2cc(Cl)c(O)c(OCCCF)c2)sc2nc(-c3ccncc3)cn12 [Example 123, 2-[1-(3-Chloro-5-(3-fluoropropoxy)-4-hydroxy-phenyl)-meth-(Z)-ylidene]-6-pyridin-4-yl-imidazo[2,1-b]thiazol-3-one] | 12 nM | 1060 nM |
| COc1cc(/C=c2\sc3nc(-c4cccc(Cl)c4)cn3c2=O)cc(F)c1O [Example 39, 2-[1-(3-fluoro-4-hydroxy-5-methoxy-phenyl)-meth-(Z)-ylidene]-6-(3-chloro-phenyl)-imidazo[2,1-b]thiazol-3-one] | 11 nM | 412 nM |
| COc1cc(/C=c2\sc3nc(-c4cc(C)on4)cn3c2=O)cc(Cl)c1O [Example 84, 2-[1-(3-Chloro-4-hydroxy-5-methoxy-phenyl)-meth-(Z)-ylidene]-6-(5-methyl-isoxazol-3-yl)-imidazo[2,1-b]thiazol-3-one] | 18 nM | 990 nM |
| CCCOc1cc(/C=c2\sc3nc(-c4cnccn4)cn3c2=O)cc(Cl)c1O [Example 129, 2-[1-(3-Chloro-4-hydroxy-5-propoxy-phenyl)-meth-(Z)-ylidene]-6-pyrazin-2-yl-imidazo[2,1-b]thiazol-3-one] | 64 nM | 2220 nM |
| COc1cc(/C=c2\sc3nc(-c4ccc(C(=O)NCCCF)cc4)cn3c2=O)cc(Cl)c1O (single isomer, unassigned) [Example 133] | 2 nM | 86 nM |
| CCCOc1cc(/C=c2\sc3nc(-c4cnccc4C)cn3c2=O)cc(Cl)c1O [Example 109, 2-[1-(3-Chloro-4-hydroxy-5-propoxy-phenyl)-meth-(Z)-ylidene]-6-(4-methyl-pyridin-3-yl)-imidazo[2,1-b]thiazol-3-one] | 33 nM | 4920 nM |
| CCOc1cc(/C=c2\sc3nc(-c4ccc(Cl)cc4)cn3c2=O)ccc1O [Example 5, 6-(4-Chloro-phenyl)-2-[1-(3-ethoxy-4-hydroxy-phenyl)-meth-(Z)-ylidene]-imidazo[2,1-b]thiazol-3-one] | 178 nM | 1160 nM |
| COc1cc(/C=c2\sc3nc(-c4ccccc4)cn3c2=O)cc(F)c1O [Example 43, 2-[1-(3-fluoro-4-hydroxy-5-methoxy-phenyl)-meth-(Z)-ylidene]-6-phenyl-imidazo[2,1-b]thiazol-3-one] | 51 nM | 2320 nM |
| COc1cc(/C=c2\sc3nc(-c4cccc(C(F)(F)F)c4)cn3c2=O)cc(OC)c1O [Example 19, 2-[1-(4-Hydroxy-3,5-dimethoxy-phenyl)-meth-(Z)-ylidene]-6-(3-trifluoromethyl-phenyl)-imidazo[2,1-b]thiazol-3-one] | 1 nM | 115 nM |
| COc1cc(/C=c2\sc3nc(-c4ccc(Cl)cc4)cn3c2=O)cc(C)c1O [Example 32, 6-(4-Chloro-phenyl)-2-[1-(4-hydroxy-3-methoxy-5-methyl-phenyl)-meth-(Z)-ylidene]-imidazo[2,1-b]thiazol-3-one] | 7 nM | 39 nM |
| COc1cc(/C=c2\sc3nc(-c4cccc(OC(F)(F)F)c4)cn3c2=O)cc(Cl)c1O [Example 22, 2-[1-(3-Chloro-4-hydroxy-5-methoxy-phenyl)-meth-(Z)-ylidene]-6-(3-trifluoromethoxy-phenyl)-imidazo[2,1-b]thiazol-3-one] | 3 nM | 198 nM |
| COc1cc(/C=c2\sc3nc(-c4cccc(C#N)c4)cn3c2=O)cc(F)c1O [Example 38, 3-{2-[1-(3-Fluoro-4-hydroxy-5-methoxy-phenyl)-meth-(Z)-ylidene]-3-oxo-2,3-dihydro-imidazo[2,1-b]thiazol-6-yl}-benzonitrile] | – | > 10000 nM |
| COc1cc(/C=c2\sc3nc(-c4cccc(OC(F)(F)F)c4)cn3c2=O)cc(F)c1O [Example 35, 2-[1-(3-Fluoro-4-hydroxy-5-methoxy-phenyl)-meth-(Z)-ylidene]-6-(3-trifluoromethoxy-phenyl)-imidazo[2,1-b]thiazol-3-one] | 13 nM | – |
| COc1cc(/C=c2\sc3nc(-c4cccc(C#N)c4)cn3c2=O)cc(F)c1O [Example 73, 3-{2-[1-(3-Fluoro-4-hydroxy-5-methoxy-phenyl)-meth-(Z)-ylidene]-3-oxo-2,3-dihydro-imidazo[2,1-b]thiazol-6-yl}-benzonitrile] | – | 13 nM |
| COc1cc(/C=c2\sc3nc(-c4cccc(C(=O)N(C)CCF)c4)cn3c2=O)cc(Cl)c1O [Example 120, 3-{2-[1-(3-Chloro-4-hydroxy-5-methoxy-phenyl)-meth-(Z)-ylidene]-3-oxo-2,3-dihydro-imidazo[2,1-b]thiazol-6-yl}-N-(2-fluoro-ethyl)-N-methyl-benzamide] | 49 nM | – |
| COc1ccccc1-c1cn2c(=O)/c(=C/c3cc(Cl)c(O)c(OC)c3)sc2n1 [Example 55, 2-[1-(3-Chloro-4-hydroxy-5-methoxy-phenyl)-meth-(Z)-ylidene]-6-(2-methoxy-phenyl)-imidazo[2,1-b]thiazol-3-one] | 103 nM | – |
| COc1cc(/C=c2\sc3nc(-c4cccc(C#N)c4)cn3c2=O)cc(OC)c1O [Example 50, 3-{2-[1-(4-Hydroxy-3,5-dimethoxy-phenyl)-meth-(Z)-ylidene]-3-oxo-2,3-dihydro-imidazo[2,1-b]thiazol-6-yl}-benzonitrile] | 7 nM | – |
| COc1cc(/C=c2\sc3nc(-c4cc(F)ccc4F)cn3c2=O)cc(Cl)c1O [Example 56, 2-[1-(3-Chloro-4-hydroxy-5-methoxy-phenyl)-meth-(Z)-ylidene]-6-(2,5-difluoro-phenyl)-imidazo[2,1-b]thiazol-3-one] | 27 nM | – |
| COc1cc(/C=c2\sc3nc(-c4ccccc4OCCF)cn3c2=O)cc(Cl)c1O [Example 83, 2-[1-(3-Chloro-4-hydroxy-5-methoxy-phenyl)-meth-(Z)-ylidene]-6-(2-(2-fluoroethoxyl)phenyl)-imidazo[2,1-b]thiazol-3-one] | 173 nM | – |
| COc1cc(/C=c2\sc3nc(-c4ccccc4OCCOCCOCCF)cn3c2=O)cc(Cl)c1O [Example 96, 2-[1-(3-Chloro-4-hydroxy-5-methoxy-phenyl)-meth-(Z)-ylidene]-6-(2-{2-[2-(2-fluoro-ethoxy)-ethoxy]-ethoxy}-phenyl)-imidazo[2,1-b]thiazol-3-one] | 102 nM | – |
